Laboratory results: PubChem BioAssay (NCI)
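The compound was tested at five concentrations on cells cultured in 96-well plates, with a 48-hour exposure period. TGI marks complete inhibition of growth.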

Experiments:
Assay in all cases: NCI-60 cell line screen, 48 h
[1] = test system: HCT-116 colon
[2] = test system: A498 renal
[3] = test system: M14 melanoma
[4] = test system: SF-539 CNS
[5] = test system: NCI-H460 lung
[6] = test system: SK-MEL-2 melanoma
[7] = test system: UACC-257 melanoma
[8] = test system: SK-MEL-5 melanoma
[9] = test system: SR leukemia
[10] = test system: UO-31 renal
[11] = test system: SF-295 CNS
[12] = test system: IGROV1 ovarian
[13] = test system: HL-60(TB) leukemia
[14] = test system: MCF7 breast
[15] = test system: K-562 leukemia
[16] = test system: MOLT-4 leukemia
[17] = test system: NCI/ADR-RES ovarian
[18] = test system: T-47D breast
[19] = test system: MDA-N
[20] = test system: PC-3 prostate
[21] = test system: LOX IMVI melanoma
[22] = test system: MDA-MB-231 breast
[23] = test system: ACHN renal
[24] = test system: HT29 colon
[25] = test system: HCT-15 colon
[26] = test system: NCI-H226 lung
[27] = test system: SF-268 CNS
[28] = test system: OVCAR-3 ovarian
[29] = test system: 786-0 renal
[30] = test system: HCC-2998 colon
[31] = test system: HOP-62 NSCLC
[32] = test system: SK-OV-3 ovarian
[33] = test system: HOP-92 NSCLC
[34] = test system: RXF 393 renal
[35] = test system: OVCAR-5 ovarian
[36] = test system: CCRF-CEM leukemia
[37] = test system: MDA-MB-435
[38] = test system: HS 578T breast
[39] = test system: DU-145 prostate
[40] = test system: NCI-H23 lung
[41] = test system: SW-620 colon
[42] = test system: SK-MEL-28 melanoma
[43] = test system: EKVX NSCLC
[44] = test system: CAKI-1 renal
[45] = test system: NCI-H522 lung
[46] = test system: RPMI-8226 leukemia
[47] = test system: KM12 colon
[48] = test system: TK-10 renal
[49] = test system: OVCAR-4 ovarian
[50] = test system: OVCAR-8 ovarian
[51] = test system: U251 CNS
[52] = test system: SNB-75 CNS
[53] = test system: UACC-62 melanoma
[54] = test system: SNB-19 CNS
[55] = test system: A549 NSCLC
[56] = test system: COLO 205 colon
[57] = test system: SN12C renal
[58] = test system: MALME-3M melanoma

Measured: TGI

CC1=CC(=O)CC(C)(C)C1/C=C/C(C)=C/C=C/C(C)=C/C=C/C=C(C)/C=C/C=C(C)/C=C/C1=C(C)CC(O)CC1(C)C (centres undefined)
4.52 µM: [9]
72.7 µM: [45]
45.3 µM: [14]
52.7 µM: [34]
99.1 µM: [30]
72.1 µM: [28]
72.5 µM: [29]
33.2 µM: [41]
84.8 µM: [37]
1.6 µM: [16]
27.1 µM: [15]
37.4 µM: [1]
70.9 µM: [33]
74.3 µM: [23]
73.4 µM: [25]
27.9 µM: [46]
not listed: [52] | [53] | [54] | [55] | [56] | [57] | [58]
> 100 µM: all other assays above

COC1OC(COC(=O)c2cc(O)c(O)c(O)c2)C(OC(=O)c2cc(O)c(O)c(O)c2)C(OC(=O)c2cc(O)c(O)c(O)c2)C1OC(=O)c1cc(O)c(O)c(O)c1 (centres undefined)
87.6 µM: [19]
49.7 µM: [15]
50.4 µM: [45]
97.3 µM: [46]
50.1 µM: [13]
70.6 µM: [16]
26.8 µM: [3]
62.6 µM: [2]
98.4 µM: [17]
25.7 µM: [37]
36 µM: [9]
37.1 µM: [4]
26.4 µM: [29]
42.5 µM: [36]
66.8 µM: [26]
77.7 µM: [28]
54 µM: [32]
> 100 µM: all other assays above
